Laboratory results from patent US8293729B2 (Boehringer Ingelheim International GmbH, priority 2009, dated 2012).

These compounds were tested against T1, human GPR119 receptor (Homo sapiens, UniProt Q8TDV5, S329A/T327A) (assay: cAMP assay (LANCE cAMP-384) in HEK293 cells stably expressing mutant human GPR119 receptor). Conditions: HEK293, 20 min; 10 μM; the 30th table; read-out: stimulation in % at 10 μM.
T1 construct: N-terminal leader […]; expressed in transfected cells
T1 sequence (Q8TDV5 with tags, fused parts or gaps T327A/S329A): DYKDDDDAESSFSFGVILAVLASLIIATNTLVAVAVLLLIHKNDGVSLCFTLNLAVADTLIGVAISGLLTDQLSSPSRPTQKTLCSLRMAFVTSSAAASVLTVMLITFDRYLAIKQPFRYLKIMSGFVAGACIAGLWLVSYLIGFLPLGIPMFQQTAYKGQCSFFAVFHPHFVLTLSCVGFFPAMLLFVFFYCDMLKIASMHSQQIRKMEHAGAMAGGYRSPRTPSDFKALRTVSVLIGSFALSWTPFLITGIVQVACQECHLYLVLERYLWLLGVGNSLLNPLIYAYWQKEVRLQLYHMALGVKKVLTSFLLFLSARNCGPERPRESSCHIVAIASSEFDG
Assay type: cell-based
In short: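 Agonist EC50 came from nonlinear regression over 12 concentrations (30 μM–100 pM), with % stimulation at 10 μM where no EC50 was obtained. Cells: stable HEK293 with mutant human GPR119 (T327A/S329A), 20 min compound at 37° C; cAMP read by LANCE kit with standard curve.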

SMILES | activation at 10 µM [%]
CC(C)OC(=O)N1CCC(ON=C2CCN(c3ncc(CN4CCCC4=O)cc3F)CC2)CC1 [Example 54-4] | 93
Cc1nnn(Cc2cnc(N3CCC(=NOC4CCN(C(=O)OC(C)C)CC4)CC3)c(F)c2)n1 [Example 54-5] | 75

Same assay, conditions: cAMP accumulation, HEK293 cells stably expressing mutant human GPR119; read-out: EC50

SMILES | EC50 [nM]
Cc1nc(N2CCC(=NOC3CCN(C(=O)OC(C)C)CC3)CC2)c(F)cc1CO [Example 55-1, 4-(3′-Fluoro-5′-hydroxymethyl-6′-methyl-2,3,5,6-tetrahydro-[1,2′]bipyridinyl-4-ylideneaminooxy)-piperidine-1-carboxylic acid isopropyl ester] | 206
CC(C)OC(=O)N1CCC(ON=C2CCN(c3nc(Cl)c(CO)nc3Cl)CC2)CC1 [Example 56-1, 4-[1-(3,6-Dichloro-5-hydroxymethyl-pyrazin-2-yl)-piperidin-4-ylideneaminooxy]-piperidine-1-carboxylic acid isopropyl ester] | 35
CC(C)OC(=O)N1CCC(ON=C2CCN(c3ncc4c(n3)CCN(S(C)(=O)=O)C4)CC2)CC1 [Example 59b, 4-[1-(6-Methanesulfonyl-5,6,7,8-tetrahydro-pyrido[4,3-d]pyrimidin-2-yl)-piperidin-4-ylideneaminooxy]-piperidine-1-carboxylic acid isopropyl ester] | 328

Same assay, conditions: the 30th table; read-out: EC50

SMILES | EC50 [nM]
Cc1cnn(Cc2cnc(N3CCC(=NOC4CCN(C(=O)OC(C)C)CC4)CC3)c(F)c2)c1 [Example 54-1, 4-[3′-Fluoro-5′-(4-methyl-pyrazol-1-ylmethyl)-2,3,5,6-tetrahydro-[1,2]bipyridinyl-4-ylideneaminooxy]-piperidine-1-carboxylic acid isopropyl ester] | 445
CC(C)OC(=O)N1CCC(ON=C2CCN(c3ncc(Cn4ccnn4)cc3F)CC2)CC1 [Example 54-2] | 1060
CC(C)OC(=O)N1CCC(ON=C2CCN(c3ncc(Cn4nccn4)cc3F)CC2)CC1 [Example 54-3] | 765
Cc1nnnn1Cc1cnc(N2CCC(=NOC3CCN(C(=O)OC(C)C)CC3)CC2)c(F)c1 [Example 54-6] | 1150
CC(C)OC(=O)N1CCC(ON=C2CCN(c3ncc(CS(C)(=O)=O)cc3F)CC2)CC1 [Example 54-7] | 484

Same assay, conditions: the 31st table; read-out: EC50

SMILES | EC50 [nM]
CC(C)OC(=O)N1CCC(ON=C2CN(c3ccc(S(C)(=O)=O)cc3F)C2)CC1 [Example 61-3] | 161

Same assay, conditions: the 32nd table; read-out: EC50

SMILES | EC50 [nM]
CS(=O)(=O)c1ccc(N2CCC(=NOC3CCN(c4ccccn4)CC3)CC2)c(F)c1 [Example 63-1, 1-(2-Fluoro-4-methanesulfonyl-phenyl)-piperidin-4-one O-(3,4,5,6-tetrahydro-2H-[1,2′]bipyridinyl-4-yl)-oxime] | 459
Cc1cccc(N2CCC(ON=C3CCN(c4ccc(S(C)(=O)=O)cc4F)CC3)CC2)n1 [Example 63-2] | 1250
Cc1cccnc1N1CCC(ON=C2CCN(c3ccc(S(C)(=O)=O)cc3F)CC2)CC1 [Example 63-3] | > 10000
CS(=O)(=O)c1ccc(N2CCC(=NOC3CCN(c4ccncc4)CC3)CC2)c(F)c1 [Example 63-4] | > 10000
CS(=O)(=O)c1ccc(N2CCC(=NOC3CCN(c4ccnc(Cl)n4)CC3)CC2)c(F)c1 [Example 63-5] | > 10000
CS(=O)(=O)c1ccc(N2CCC(=NOC3CCN(c4nccc(Cl)n4)CC3)CC2)c(F)c1 [Example 63-6] | 1340
CS(=O)(=O)c1ccc(N2CCC(=NOC3CCN(c4nccs4)CC3)CC2)c(F)c1 [Example 63-7] | 447
CS(=O)(=O)c1ccc(N2CCC(=NOC3CCN(c4ncccn4)CC3)CC2)c(F)c1 [Example 63-8] | 238
CS(=O)(=O)c1ccc(N2CCC(=NOC3CCN(c4cc(C(F)(F)F)ccn4)CC3)CC2)c(F)c1 [Example 63-10] | > 10000
CS(=O)(=O)c1ccc(N2CCC(=NOC3CCN(c4nccc(C(F)(F)F)n4)CC3)CC2)c(F)c1 [Example 63-11] | > 10000
Cc1cc(C(F)(F)F)cc(N2CCC(ON=C3CCN(c4ccc(S(C)(=O)=O)cc4F)CC3)CC2)n1 [Example 63-13] | 1490
CS(=O)(=O)c1ccc(N2CCC(=NOC3CCN(c4ccc(C(F)(F)F)cn4)CC3)CC2)c(F)c1 [Example 63-14] | 495
Cc1ccnc(N2CCC(ON=C3CCN(c4ccc(S(C)(=O)=O)cc4F)CC3)CC2)n1 [Example 63-16] | 765
Cc1csc(N2CCC(ON=C3CCN(c4ccc(S(C)(=O)=O)cc4F)CC3)CC2)n1 [Example 63-17] | > 10000
Cc1cc(C)nc(N2CCC(ON=C3CCN(c4ccc(S(C)(=O)=O)cc4F)CC3)CC2)n1 [Example 63-18] | > 10000
CS(=O)(=O)c1ccc(N2CCC(=NOC3CCN(c4ncc(Br)cn4)CC3)CC2)c(F)c1 [Example 63-19] | 77
CS(=O)(=O)c1ccc(N2CCC(=NOC3CCN(c4ccc(Br)cn4)CC3)CC2)c(F)c1 [Example 63-20] | 387
COC(=O)c1cnc(N2CCC(ON=C3CCN(c4ccc(S(C)(=O)=O)cc4F)CC3)CC2)nc1 [Example 63-21] | 260
CS(=O)(=O)c1ccc(N2CCC(=NOC3CCN(c4ccc(S(C)(=O)=O)cc4F)CC3)CC2)c(F)c1 [Example 63-22] | 397
CS(=O)(=O)c1ccc(N2CCC(=NOC3CCN(c4ccc(C#N)cn4)CC3)CC2)c(F)c1 [Example 63-23] | 1300
CS(=O)(=O)c1ccc(N2CCC(=NOC3CCN(c4ccc(Cl)cn4)CC3)CC2)c(F)c1 [Example 63-24] | 977
CS(=O)(=O)c1ccc(N2CCC(=NOC3CCN(c4ncc(Br)cc4F)CC3)CC2)c(F)c1 [Example 63-25] | 195
CCOC(=O)c1ccc(N2CCC(ON=C3CCN(c4ccc(S(C)(=O)=O)cc4F)CC3)CC2)nc1 [Example 63-26] | > 10000

Same assay, conditions: the 33rd table; read-out: EC50

SMILES | EC50 [nM]
CS(=O)(=O)c1ccc(N2CCC(=NOC3CCN(C(=O)OC4CCC4)CC3)CC2)c(F)c1 [Example 64-1, 4-[1-(2-Fluoro-4-methanesulfonyl-phenyl)-piperidin-4-ylideneaminooxy]-piperidine-1-carboxylic acid cyclobutyl ester] | 81
CS(=O)(=O)c1ccc(N2CCC(=NOC3CCN(C(=O)OCC4CC4)CC3)CC2)c(F)c1 [Example 64-2] | 101
C#CCOC(=O)N1CCC(ON=C2CCN(c3ccc(S(C)(=O)=O)cc3F)CC2)CC1 [Example 64-3] | 446
CC#CCOC(=O)N1CCC(ON=C2CCN(c3ccc(S(C)(=O)=O)cc3F)CC2)CC1 [Example 64-4] | 152
CC(OC(=O)N1CCC(ON=C2CCN(c3ccc(S(C)(=O)=O)cc3F)CC2)CC1)C1CC1 (centres unmarked) [Example 64-5] | 90
CS(=O)(=O)c1ccc(N2CCC(=NOC3CCN(C(=O)OCC4CCC4)CC3)CC2)c(F)c1 [Example 64-6] | 36
CC1(COC(=O)N2CCC(ON=C3CCN(c4ccc(S(C)(=O)=O)cc4F)CC3)CC2)CC1 [Example 64-7] | 67
CC1CC1COC(=O)N1CCC(ON=C2CCN(c3ccc(S(C)(=O)=O)cc3F)CC2)CC1 (centres unmarked) [Example 64-8] | 32
CCOCCOC(=O)N1CCC(ON=C2CCN(c3ccc(S(C)(=O)=O)cc3F)CC2)CC1 [Example 64-10] | 1280
CS(=O)(=O)c1ccc(N2CCC(=NOC3CCN(C(=O)O[C@H]4CNC(=O)C4)CC3)CC2)c(F)c1 [Example 64-11] | > 10000
CN1CCC(OC(=O)N2CCC(ON=C3CCN(c4ccc(S(C)(=O)=O)cc4F)CC3)CC2)C1 (centres unmarked) [Example 64-13] | > 10000
CC(CN(C)C)OC(=O)N1CCC(ON=C2CCN(c3ccc(S(C)(=O)=O)cc3F)CC2)CC1 (centres unmarked) [Example 64-14] | > 10000
CN(C)CCCOC(=O)N1CCC(ON=C2CCN(c3ccc(S(C)(=O)=O)cc3F)CC2)CC1 [Example 64-15] | > 10000
CS(=O)(=O)c1ccc(N2CCC(=NOC3CCN(C(=O)OCc4ccccn4)CC3)CC2)c(F)c1 [Example 64-17] | 1070
CS(=O)(=O)c1ccc(N2CCC(=NOC3CCN(C(=O)OCCn4cccc4)CC3)CC2)c(F)c1 [Example 64-18] | 461
CN1CCCC(OC(=O)N2CCC(ON=C3CCN(c4ccc(S(C)(=O)=O)cc4F)CC3)CC2)C1 (centres unmarked) [Example 64-19] | > 10000
CS(=O)(=O)c1ccc(N2CCC(=NOC3CCN(C(=O)OCCN4CCCC4)CC3)CC2)c(F)c1 [Example 64-20] | > 10000
CN(C)CCCCOC(=O)N1CCC(ON=C2CCN(c3ccc(S(C)(=O)=O)cc3F)CC2)CC1 [Example 64-21] | > 10000
COC(=O)CC(C)OC(=O)N1CCC(ON=C2CCN(c3ccc(S(C)(=O)=O)cc3F)CC2)CC1 (centres unmarked) [Example 64-22] | 193
COC(=O)[C@@H](C)COC(=O)N1CCC(ON=C2CCN(c3ccc(S(C)(=O)=O)cc3F)CC2)CC1 [Example 64-23] | 928
COC(=O)[C@@H](C)COC(=O)N1CCC(ON=C2CCN(c3ccc(S(C)(=O)=O)cc3F)CC2)CC1 [Example 64-24] | 708
Cc1ncccc1COC(=O)N1CCC(ON=C2CCN(c3ccc(S(C)(=O)=O)cc3F)CC2)CC1 [Example 64-26] | > 10000
CN1CCCC1CCOC(=O)N1CCC(ON=C2CCN(c3ccc(S(C)(=O)=O)cc3F)CC2)CC1 (centres unmarked) [Example 64-27] | > 10000
CS(=O)(=O)c1ccc(N2CCC(=NOC3CCN(C(=O)OCCN4CCCCC4)CC3)CC2)c(F)c1 [Example 64-28] | > 10000
CCN(CC)CCCOC(=O)N1CCC(ON=C2CCN(c3ccc(S(C)(=O)=O)cc3F)CC2)CC1 [Example 64-29] | > 10000
